In PubChem BioAssay (NCI):
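Compound exposure: 48 hours, 5 concentrations, 96-well plates. At the GI50, growth is halved. TGI: total growth inhibition.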

Tests used:
Assay in all cases: NCI-60 cell line screen, 48 h
[1] = test system: 786-0 renal
[2] = test system: A498 renal
[3] = test system: A549 NSCLC
[4] = test system: ACHN renal
[5] = test system: BT-549 breast
[6] = test system: CAKI-1 renal
[7] = test system: CCRF-CEM leukemia
[8] = test system: COLO 205 colon
[9] = test system: DU-145 prostate
[10] = test system: EKVX NSCLC
[11] = test system: HCC-2998 colon
[12] = test system: HCT-116 colon
[13] = test system: HCT-15 colon
[14] = test system: HOP-62 NSCLC
[15] = test system: HOP-92 NSCLC
[16] = test system: HS 578T breast
[17] = test system: HT29 colon
[18] = test system: IGROV1 ovarian
[19] = test system: KM12 colon
[20] = test system: LOX IMVI melanoma
[21] = test system: M14 melanoma
[22] = test system: MALME-3M melanoma
[23] = test system: MCF7 breast
[24] = test system: MDA-MB-231 breast
[25] = test system: MDA-MB-435
[26] = test system: NCI-H226 lung
[27] = test system: NCI-H460 lung
[28] = test system: NCI-H522 lung
[29] = test system: NCI/ADR-RES ovarian
[30] = test system: OVCAR-3 ovarian
[31] = test system: OVCAR-4 ovarian
[32] = test system: OVCAR-5 ovarian
[33] = test system: OVCAR-8 ovarian
[34] = test system: PC-3 prostate
[35] = test system: RPMI-8226 leukemia
[36] = test system: RXF 393 renal
[37] = test system: SF-268 CNS
[38] = test system: SF-295 CNS
[39] = test system: SF-539 CNS
[40] = test system: SK-MEL-2 melanoma
[41] = test system: SK-MEL-28 melanoma
[42] = test system: SK-MEL-5 melanoma
[43] = test system: SK-OV-3 ovarian
[44] = test system: SN12C renal
[45] = test system: SNB-19 CNS
[46] = test system: SNB-75 CNS
[47] = test system: SW-620 colon
[48] = test system: T-47D breast
[49] = test system: TK-10 renal
[50] = test system: U251 CNS
[51] = test system: UACC-257 melanoma
[52] = test system: UACC-62 melanoma
[53] = test system: UO-31 renal

Question: With `COc1cc2nc(-c3ccc(C(F)(F)F)cc3)cc(OCCCNCC3CCCO3)c2cc1OC` (stereo unspecified) as the compound, how does the GI50 [1] read?
Answer: 6.44 µM

Question: And the TGI [1]?
Answer: 21.1 µM

Question: What about the GI50 [2] of the same compound?
Answer: 20.6 µM

Question: And the TGI [2]?
Answer: 37 µM

Question: What about the GI50 [3] of the same compound?
Answer: 4.43 µM

Question: And the TGI [3]?
Answer: 21.2 µM

Question: And the GI50 [4]?
Answer: 4.89 µM

Question: And the TGI [4]?
Answer: 18.2 µM

Question: What about the GI50 [5] of the same compound?
Answer: 6.92 µM

Question: And the TGI [5]?
Answer: 21.1 µM

Question: What about the GI50 [6] of the same compound?
Answer: 1.74 µM

Question: What about the TGI [6] of the same compound?
Answer: 5.32 µM

Question: What about the GI50 [7] of the same compound?
Answer: 6.61 µM

Question: And the TGI [7]?
Answer: 24.4 µM

Question: And the GI50 [8]?
Answer: 3.09 µM

Question: And the TGI [8]?
Answer: 17.7 µM

Question: What about the GI50 [9] of the same compound?
Answer: 9.03 µM

Question: And the TGI [9]?
Answer: 21.7 µM

Question: What about the GI50 [10] of the same compound?
Answer: 4.22 µM

Question: And the TGI [10]?
Answer: 18.6 µM

Question: What about the GI50 [11] of the same compound?
Answer: 10.3 µM

Question: What about the TGI [11] of the same compound?
Answer: 23.6 µM

Question: What about the GI50 [12] of the same compound?
Answer: 3.45 µM

Question: What about the TGI [12] of the same compound?
Answer: 14.8 µM

Question: And the GI50 [13]?
Answer: 3.1 µM

Question: What about the TGI [13] of the same compound?
Answer: 12.3 µM

Question: What about the GI50 [14] of the same compound?
Answer: 6.01 µM

Question: And the TGI [14]?
Answer: 21.4 µM

Question: And the GI50 [15]?
Answer: 1.57 µM

Question: And the TGI [15]?
Answer: 7.85 µM

Question: And the GI50 [16]?
Answer: 10.4 µM

Question: And the TGI [16]?
Answer: 25.8 µM

Question: What about the GI50 [17] of the same compound?
Answer: 2.98 µM

Question: And the TGI [17]?
Answer: 11.2 µM

Question: And the GI50 [18]?
Answer: 4.41 µM

Question: What about the TGI [18] of the same compound?
Answer: 18.8 µM

Question: And the GI50 [19]?
Answer: 5.49 µM

Question: And the TGI [19]?
Answer: 20.5 µM

Question: What about the GI50 [20] of the same compound?
Answer: 1.61 µM

Question: What about the TGI [20] of the same compound?
Answer: 4.33 µM

Question: What about the GI50 [21] of the same compound?
Answer: 3.09 µM

Question: And the TGI [21]?
Answer: 12.4 µM

Question: What about the GI50 [22] of the same compound?
Answer: 3.17 µM

Question: And the TGI [22]?
Answer: 13.8 µM

Question: What about the GI50 [23] of the same compound?
Answer: 3.23 µM

Question: And the TGI [23]?
Answer: 15.9 µM

Question: What about the GI50 [24] of the same compound?
Answer: 3.79 µM

Question: What about the TGI [24] of the same compound?
Answer: 17 µM

Question: And the GI50 [25]?
Answer: 3.13 µM

Question: And the TGI [25]?
Answer: 11.7 µM

Question: What about the GI50 [26] of the same compound?
Answer: 2.51 µM

Question: And the TGI [26]?
Answer: 8.6 µM

Question: And the GI50 [27]?
Answer: 3.89 µM

Question: What about the TGI [27] of the same compound?
Answer: 15.8 µM

Question: And the GI50 [28]?
Answer: 3.05 µM

Question: What about the TGI [28] of the same compound?
Answer: 13.8 µM

Question: What about the GI50 [29] of the same compound?
Answer: 6.92 µM

Question: What about the TGI [29] of the same compound?
Answer: 24.5 µM

Question: And the GI50 [30]?
Answer: 12.3 µM

Question: And the TGI [30]?
Answer: 27.5 µM

Question: What about the GI50 [31] of the same compound?
Answer: 9.01 µM

Question: And the TGI [31]?
Answer: 21.5 µM

Question: And the GI50 [32]?
Answer: 4.09 µM

Question: And the TGI [32]?
Answer: 17.5 µM

Question: And the GI50 [33]?
Answer: 3.72 µM

Question: What about the TGI [33] of the same compound?
Answer: 16.6 µM

Question: And the GI50 [34]?
Answer: 3.8 µM

Question: What about the TGI [34] of the same compound?
Answer: 17.2 µM

Question: And the GI50 [35]?
Answer: 2.39 µM

Question: And the TGI [35]?
Answer: 12.2 µM

Question: And the GI50 [36]?
Answer: 1.38 µM

Question: What about the TGI [36] of the same compound?
Answer: 5.23 µM

Question: And the GI50 [37]?
Answer: 10.4 µM

Question: What about the TGI [37] of the same compound?
Answer: 25 µM

Question: What about the GI50 [38] of the same compound?
Answer: 8.68 µM

Question: And the TGI [38]?
Answer: 22 µM

Question: And the GI50 [39]?
Answer: 11.2 µM

Question: And the TGI [39]?
Answer: 24 µM

Question: What about the GI50 [40] of the same compound?
Answer: 13.7 µM

Question: What about the TGI [40] of the same compound?
Answer: 26.9 µM

Question: What about the GI50 [41] of the same compound?
Answer: 5.77 µM

Question: And the TGI [41]?
Answer: 19.3 µM

Question: And the GI50 [42]?
Answer: 11.7 µM

Question: And the TGI [42]?
Answer: 24.7 µM

Question: What about the GI50 [43] of the same compound?
Answer: 12.4 µM

Question: And the TGI [43]?
Answer: 25.8 µM

Question: And the GI50 [44]?
Answer: 4.63 µM

Question: What about the TGI [44] of the same compound?
Answer: 18.4 µM

Question: And the GI50 [45]?
Answer: 13.3 µM

Question: And the TGI [45]?
Answer: 28.4 µM

Question: And the GI50 [46]?
Answer: 8.45 µM

Question: And the TGI [46]?
Answer: 21.9 µM

Question: What about the GI50 [47] of the same compound?
Answer: 8.16 µM

Question: What about the TGI [47] of the same compound?
Answer: 22 µM

Question: What about the GI50 [48] of the same compound?
Answer: 4.06 µM

Question: And the TGI [48]?
Answer: 19 µM

Question: And the GI50 [49]?
Answer: 12.2 µM

Question: And the TGI [49]?
Answer: 25.3 µM

Question: And the GI50 [50]?
Answer: 7.37 µM

Question: What about the TGI [50] of the same compound?
Answer: 26.5 µM

Question: What about the GI50 [51] of the same compound?
Answer: 2.01 µM

Question: What about the TGI [51] of the same compound?
Answer: 4.79 µM

Question: What about the GI50 [52] of the same compound?
Answer: 3.54 µM

Question: What about the TGI [52] of the same compound?
Answer: 14.5 µM

Question: And the GI50 [53]?
Answer: 2.53 µM

Question: And the TGI [53]?
Answer: 15.6 µM
